Experiments:
Format in all cases: biochemical
Human MMP9 = molecular target: T1, Human MMP9 (Homo sapiens, UniProt P14780); assay: Isolated enzyme assay, MMP9
T1 construct: made in house
From the text: (§1) A protocol for testing against other matrix metalloproteinases, including MMP9, using expressed and purified pro MMP is described, for instance, by C. Graham Knight et al., (1992) FEBS Lett. 296(3):263-266.

Human MMP2 = molecular target: T2, Human MMP2 (Homo sapiens, UniProt P08253); assay: Isolated enzyme assay, MMP2
T2 construct: made in house
T2 sequence (P08253 110-660): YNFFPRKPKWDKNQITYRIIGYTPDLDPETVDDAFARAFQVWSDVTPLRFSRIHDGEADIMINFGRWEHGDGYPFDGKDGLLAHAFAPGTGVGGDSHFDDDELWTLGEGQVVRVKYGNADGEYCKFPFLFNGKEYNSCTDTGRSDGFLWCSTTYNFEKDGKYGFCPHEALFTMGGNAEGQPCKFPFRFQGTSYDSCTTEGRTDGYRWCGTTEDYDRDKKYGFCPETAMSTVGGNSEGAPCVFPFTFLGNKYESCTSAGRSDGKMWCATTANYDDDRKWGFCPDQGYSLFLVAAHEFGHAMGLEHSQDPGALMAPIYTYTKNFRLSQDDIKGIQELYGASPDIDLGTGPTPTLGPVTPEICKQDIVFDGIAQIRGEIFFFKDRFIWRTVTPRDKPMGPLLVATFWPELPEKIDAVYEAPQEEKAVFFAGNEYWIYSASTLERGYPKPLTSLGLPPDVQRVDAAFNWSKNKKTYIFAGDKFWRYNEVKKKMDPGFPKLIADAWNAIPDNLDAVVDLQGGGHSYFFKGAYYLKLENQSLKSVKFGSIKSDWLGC
From the text: as §1

Human MMP14 = molecular target: T3, Human MMP14 (Homo sapiens, UniProt P50281); assay: Isolated enzyme assay, MMP14
T3 construct: made in house
From the text: as §1

Human MMP12 = molecular target: T4, Human MMP12 (Homo sapiens, UniProt P39900); assay: Isolated enzyme assay, MMP12 catalytic domain, fluorogenic substrate; details: recombinant human MMP12 catalytic domain
T4 construct: Recombinant human MMP12 catalytic domain may be expressed and purified as described by Parkar A. A. et al; made in house
Description: Recombinant human MMP12 catalytic domain may be expressed and purified as described by Parkar A. A. et al, (2000), Protein Expression and Purification, 20:152. The purified enzyme can be used to monitor inhibitors of activity as follows: MMP12 (50 ng/ml final concentration) is incubated for 60 minutes at room temperature with the synthetic substrate Mac-Pro-Cha-Gly-Nva-His-Ala-Dpa-NH2 in assay buffer (0.1M “Tris-HCl” (trade mark) buffer, pH 7.3 containing 0.1M NaCl, 20 mM CaCl2, 0.020 mM ZnCl and 0.05% (w/v) “Brij 35” (trade mark) detergent) in the presence (5 concentrations) or absence of inhibitors. Activity is determined by measuring the fluorescence at λex 320 nm and λem 405 nm. Percent inhibition is calculated as follows: % Inhibition is equal to the […].

Human MMP8 = molecular target: T5, Human MMP8 (Homo sapiens, UniProt P22894); assay: Isolated enzyme assay, MMP8
T5 construct: made in house
From the text: as §1

Human MMP19 = molecular target: T6, Human MMP19 (Homo sapiens, UniProt Q99542); assay: Isolated enzyme assay, MMP19
T6 construct: made in house
T6 sequence (Q99542 98-508): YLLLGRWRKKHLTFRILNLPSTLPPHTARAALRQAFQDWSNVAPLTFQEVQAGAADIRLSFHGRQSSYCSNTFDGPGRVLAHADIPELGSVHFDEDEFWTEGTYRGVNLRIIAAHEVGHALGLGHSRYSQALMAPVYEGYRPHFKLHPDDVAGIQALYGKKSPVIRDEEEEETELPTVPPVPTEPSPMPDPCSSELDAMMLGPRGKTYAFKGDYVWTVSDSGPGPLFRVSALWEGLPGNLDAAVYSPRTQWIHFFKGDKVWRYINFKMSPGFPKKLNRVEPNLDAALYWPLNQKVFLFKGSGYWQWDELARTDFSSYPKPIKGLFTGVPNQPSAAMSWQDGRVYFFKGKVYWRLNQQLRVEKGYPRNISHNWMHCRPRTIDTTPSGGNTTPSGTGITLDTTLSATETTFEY
From the text: as §1

T4 sequence (P39900 106-263 limits assumed): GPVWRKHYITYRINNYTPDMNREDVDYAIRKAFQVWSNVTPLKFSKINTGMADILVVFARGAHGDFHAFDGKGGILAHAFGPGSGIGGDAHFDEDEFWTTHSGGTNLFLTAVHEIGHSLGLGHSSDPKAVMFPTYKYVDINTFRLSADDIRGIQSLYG
T5 sequence (P22894 101-467): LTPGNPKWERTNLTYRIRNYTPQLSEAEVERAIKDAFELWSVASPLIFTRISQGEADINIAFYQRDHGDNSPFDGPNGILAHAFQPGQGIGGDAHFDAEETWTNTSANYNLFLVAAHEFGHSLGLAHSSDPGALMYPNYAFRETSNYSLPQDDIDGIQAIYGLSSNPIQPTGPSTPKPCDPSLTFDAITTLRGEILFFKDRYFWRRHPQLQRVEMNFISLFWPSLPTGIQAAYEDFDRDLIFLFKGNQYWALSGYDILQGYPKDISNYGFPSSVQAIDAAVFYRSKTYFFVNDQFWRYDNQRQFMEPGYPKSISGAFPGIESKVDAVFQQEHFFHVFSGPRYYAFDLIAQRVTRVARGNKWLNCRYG
T1 sequence (P14780 94-707): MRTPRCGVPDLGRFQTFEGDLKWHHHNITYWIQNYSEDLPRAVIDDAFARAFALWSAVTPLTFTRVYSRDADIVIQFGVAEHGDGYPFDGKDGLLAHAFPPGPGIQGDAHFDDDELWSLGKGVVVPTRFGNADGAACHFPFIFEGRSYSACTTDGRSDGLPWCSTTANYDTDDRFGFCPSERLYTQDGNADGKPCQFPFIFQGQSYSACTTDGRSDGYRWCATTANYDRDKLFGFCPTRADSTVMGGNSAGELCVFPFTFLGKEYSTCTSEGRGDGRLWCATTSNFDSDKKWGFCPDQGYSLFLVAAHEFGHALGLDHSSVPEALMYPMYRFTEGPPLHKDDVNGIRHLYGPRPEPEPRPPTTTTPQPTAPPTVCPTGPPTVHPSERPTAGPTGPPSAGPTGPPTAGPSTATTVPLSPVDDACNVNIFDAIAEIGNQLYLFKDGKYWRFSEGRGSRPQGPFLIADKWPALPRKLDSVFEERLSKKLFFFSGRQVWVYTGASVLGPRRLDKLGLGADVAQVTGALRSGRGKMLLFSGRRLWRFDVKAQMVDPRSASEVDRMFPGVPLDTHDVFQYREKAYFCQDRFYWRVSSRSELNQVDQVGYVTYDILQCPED

Row | SMILES | IC50 (Human MMP9) | IC50 (Human MMP2) | IC50 (Human MMP14) | IC50 (Human MMP12) | IC50 (Human MMP8) | IC50 (Human MMP19)
1 | O=c1[nH]nc(CCS(=O)(=O)N2CCC(Oc3ccc(Cl)cn3)CC2)[nH]1 [Example 2, 5-[2-({4-[(5-Chloropyridin-2-yl)oxy]piperidin-1-yl}sulfonyl)ethyl]-2,4-dihydro-3H-1,2,4-triazol-3-one] | 318 nM | 1010 nM | 6660 nM | 65 nM | 243 nM | –
2 | O=c1[nH]nc(CS(=O)(=O)N2CCN(c3ccc(Cl)cc3)CC2)[nH]1 [Example 4, 5-({[4-(4-Chlorophenyl)piperazin-1-yl]sulfonyl}methyl)-2,4-dihydro-3H-1,2,4-triazol-3-one] | 414 nM | 142 nM | 1750 nM | 18 nM | 31 nM | 64 nM
3 | O=c1[nH]nc(CS(=O)(=O)N2CC=C(C#Cc3cnc(C(F)(F)F)nc3)CC2)[nH]1 [Example 6, 5-({[4-{[2-(Trifluoromethyl)pyrimidin-5-yl]ethynyl}-3,6-dihydropyridin-1(2H)-yl]sulfonyl}methyl)-2,4-dihydro-3H-1,2,4-triazol-3-one] | 5.7 nM | 263 nM | 6850 nM | 2.4 nM | 284 nM | 4300 nM

— patent publication US20090299066A1, “TRIAZOLONE DERIVATIVES AS MMP INHIBITORS FOR THE TREATMENT OF ASTHMA AND COPD” (priority 2004, published 2009)
